Measured values from patent US7279542B2, “Polymeric particles and fragrance delivery systems” (Firmenich SA, priority 2003, dated 2007).
Where two headings read alike, the source gives them in different places.

Columns and labels:
[1] = LogP of fragrance raw materials (partition coefficient between octanol and water); type: physicochemical
[2] = Swelling of micro-capsules with single fragrance raw materials (mass fraction in swollen micro-capsule); type: physicochemical; conditions: micro-capsules of Example 4 swelled with excess raw material, 1 to 3 days
Source text: The capsules were allowed to swallow with an excess of the model-perfume (see Example 1) during 1 to 3 days. The swelled micro-particles were then separated from the remaining perfume by filtration and washed with ethanol. This experiment was repeated for various raw materials having various chemical functionalities or various polarities (i.e. LogP, P being the partition coefficient between octanol and water).

[3] = P = partition coefficient between octanol and water, read-out: LogP

logP [1, 3]	Fragrance mass fraction in the final swollen micro-capsule weight [%] [2] [%]	logP [1]	SMILES
1.57	49.8	–	CC(=O)OCc1ccccc1 [Benzyl acetate]
3.59	36.2	–	CC(C)=CCC/C(C)=C/CO [Geraniol]
–	50.3	5.37	O=C1CCCCCCCCC/C=C/CCCO1 [Habanolide ®, pentadecenolide]
4.91	50.7	–	CCCCCCOC(=O)c1ccccc1O [Hexyl salicylate]
